Experimental data taken from patent publication US12083109B2, “Neurokinin antagonists and uses thereof” (California Institute of Technology, priority 2017, dated 2024).

Target: T1, Nk3R (Mus musculus, UniProt P47937)
T1 sequence (P47937 1-452): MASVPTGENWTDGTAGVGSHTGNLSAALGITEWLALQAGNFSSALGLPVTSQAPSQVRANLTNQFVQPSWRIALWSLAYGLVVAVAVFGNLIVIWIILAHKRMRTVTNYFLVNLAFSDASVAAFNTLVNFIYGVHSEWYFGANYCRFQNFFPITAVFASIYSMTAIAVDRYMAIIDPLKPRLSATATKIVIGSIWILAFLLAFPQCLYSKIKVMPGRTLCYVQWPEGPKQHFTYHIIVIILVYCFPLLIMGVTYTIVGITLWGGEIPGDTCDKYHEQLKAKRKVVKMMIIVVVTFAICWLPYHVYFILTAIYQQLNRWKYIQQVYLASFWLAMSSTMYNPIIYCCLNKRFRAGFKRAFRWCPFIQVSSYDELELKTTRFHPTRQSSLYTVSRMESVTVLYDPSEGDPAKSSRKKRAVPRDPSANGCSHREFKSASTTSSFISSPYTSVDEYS
Assay: Tone fear conditioning test (freezing to conditioned tone), osanetant
Assay type: in vivo
Design: from tissue; host or cells: Living mice (wild-type C57Bl6/N males, Charles River)
Details: for SIS-induced persistent (post) freezing to fear-conditioned tone: SIS mice; for acute (and thereby persistent) freezing to conditioned threatening stimulus (tone): osanetant injection into CeA; for SIS-induced persistent freezing to conditioned tone: osanetant microinfusion into dBNSTa, 375 ng per site, 20 min before test
Experimental: The protocol for tone trace fear conditioning was performed as previously described (Cushman et al., 2014; incorporated by reference in its entirety) using fear conditioning boxes previously described in detail (Haubensak et al., 2010; Kunwar et al., 2015; incorporated by reference in their entirety). Briefly, mice were transported in squads of four on a white cart to a novel behavioral testing room containing 4 sound-attenuating fear-conditioning chambers (Med Associates). This “training context” was comprised of flat grid flooring (wired to a shock generator and scrambler for footshock delivery, Med Associates), houselights, and the presence of an internal fan for background noise. Chambers were sprayed with 70% Simple Green solution on the underlying chamber pan to generate a unique contextual scent and chambers were cleaned with 70% EtOH between squads. Trace fear conditioning consisted of a 3 minute baseline period followed by 3 tone-shock trials consisting of a 20 second tone conditional stimulus (CS; 75 dB, 2800 Hz), a 20 second trace interval and a 2 second footshock unconditional stimulus (US; 0.7 mA). The inter-trial interval (ITI) between trials was 60 seconds. Mice remained in the chambers an additional 60 seconds before being transported back to the vivarium. The following day, mice were transported in fresh cardboard boxes to a novel behavioral testing room consisting of 4 distinct fear-conditioning boxes to test for tone fear. The “test context” consisted of the houselights and fan turned off, uneven grid flooring, a 1% acetic acid scent and a black plastic insert used to generate a triangular roof. Testing was performed identical to training with the exception that shocks were omitted from test trials to allow for behavior assessment to the tone. A single shock was administered in the last minute of testing to assess activity burst responding to the shock. This allowed assessment of reactivity to the shock under our various manipulations performed during testing without disrupting fear acquisition by performing manipulations during training. All experimental manipulations and data shown herein were performed during the test phase of fear conditioning (training data not shown). Training and testing context were counterbalanced across mice. Freezing behavior during the baseline period as well as during each tone presentation (“during”) and trace interval (“post”) were assessed as previously described (Zelikowsky et al., 2014; incorporated by reference in its entirety) using automated near-infrared video tracking equipment and computer software (VideoFreeze, Med Associates). Shock reactivity (motion, arbitrary units) was measured during the 2 second shock US as well as the 3 seconds immediately following.
Mice were administered the Nk3R antagonist osanetant (Axon Medchem, Axon 1533) either systemically or intra-brain region. Osanctant was dissolved in saline with 0.1% Tween 20 (vehicle). For systemic administration mice received an intraperitoneal (i.p.) injection (5 mg/kg) 20 minutes prior to behavioral testing. For microinfusions, guide cannulas were removed from mice and replaced with injector cannulas (Plastics One), which protruded 0.5 mm from the tip of the guide cannula. Injectors were attached to 5 μl Hamilton syringes with PE tubing (Plastics One) and mounted on a microinfusion pump (Harvard Apparatus) for controlled infusion of osanetant (0.3 μl vehicle with 375 ng dose per site injected over 6 minutes). For experiments using systemic administration of clozapine-N-oxide (CNO), CNO (Enzo Life Sciences-Biomol, BML-NS105-0005) was dissolved in saline (9 g/L NaCl) and injected (i.p.) at 5 mg/kg for hM4DREADD silencing or 2 mg/kg for hM3DREADD activation 20 minutes prior to behavioral testing. CNO was also administered chronically in drinking water (0.5 mg CNO/100 ml water).

SIS-induced persistent (post) freezing to fear-conditioned tone (osanetant 5 mg/kg i.p. 20 min before test): blocked | SIS-induced persistent (post) freezing to fear-conditioned tone (osanetant 5 mg/kg i.p. 20 min before test, listed as Osanetant): attenuated | freezing during presentation of conditioned tone (acute) (osanetant 5 mg/kg i.p. 20 min before test, between groups): no significant differences | acute (and thereby persistent) freezing to conditioned threatening stimulus (tone): reduced | acute (and thereby persistent) freezing to conditioned threatening stimulus (tone) (listed as Osanetant): selectively blocked | persistent responses to conditioned tone (osanetant microinfusion into DMH): had no effect | SIS-induced persistent freezing to conditioned tone: selectively inhibited | SIS-induced persistent freezing to conditioned tone (listed as Osanetant): selectively blocked
SMILES: CC(=O)N(C)C1(c2ccccc2)CCN(CCC[C@]2(c3ccc(Cl)c(Cl)c3)CCCN(C(=O)c3ccccc3)C2)CC1 [osanetant, N-(1-{3-[(3R)-1-benzoyl-3-(3,4-dichlorophenyl)piperidin-3-yl]propyl}-4-phenylpiperidin-4-yl)-N-methylacetamide]
